Laboratory results: patent KR20130112248A, “피라졸로피리미딘 유도체 화합물, 이를 포함하는 산화질소 생성 억제용 조성물 및 뇌신경 질환 예방 및 치료용 약학적 조성물” (한국과학기술연구원, priority 2012, dated 2013)

Test system: NO production in BV-2 cells [NO 생성; BV-2 세포]
Assay: Nitric oxide (NO) quantification (nitrite, Griess reaction) in LPS-activated BV-2 cells
Type: cell-based
Conditions: 20 μM, LPS 0.2 ㎍/mL, 24 h co-treatment, nitrite by Griess at 540 nm

Row | Molecule | NO (% of LPS)
1 | 1-(2-메톡시펜에틸)-N-(4-메톡시벤질)-6-(메틸설포닐)-1H-피라졸로[3,4-d]피리미딘-4-아민 [화합물 23zb] | 49±2.9 % of LPS
2 | 1-(N-t-Boc-아미노에틸)-4-(1-하이드록시에틸)아미노-6-(메틸티오)피라졸로[3,4-d]피리미딘 [화합물 14b] | 102±4 % of LPS
3 | 1-t-뷰틸-4-(1-하이드록시에틸)아미노-6-(메틸티오)피라졸로[3,4-d]피리미딘 [화합물 17d] | 93±2 % of LPS
4 | 2-(4-(1-페닐에틸아미노)-6-(메틸티오)-1H-피라졸로[3,4-d]피리미딘-1-일)에틸카바메이트 [화합물 14g] | 33.5±1.3 % of LPS
5 | 2-(4-(4-플루오로벤질아미노)-6-(메틸티오)-1H-피라졸로[3,4-d]피리미딘-1-일)에틸카바메이트 [화합물 14f] | 38.3±1.3 % of LPS

Same assay, conditions: 20 μM, LPS 0.2 ㎍/mL, 24 h co-treatment, nitrite by Griess at 540 nm, 1440 min

Row | Molecule | NO (% of LPS)
6 | CC(Nc1nc(S(C)(=O)=O)nc2c1cnn2Cc1ccccc1)c1ccccc1 (single isomer, unassigned) [화합물 23q, 1-벤질-6-(메틸설포닐)-N-(1-페닐에틸)-1H-피라졸로[3,4-d]피리미딘-4-아민] | 122±2.8 % of LPS
7 | CC(Nc1nc(S(C)(=O)=O)nc2c1cnn2Cc1ccccc1)c1ccccc1 (single isomer, unassigned) [화합물 23r, 1-벤질-6-(메틸설포닐)-N-(1-페닐에틸)-1H-피라졸로[3,4-d]피리미딘-4-아민] | 87±7.1 % of LPS
8 | CSc1nc(NCc2ccccn2)c2cn[nH]c2n1 [6h, 4-(피리딘-2-일)메틸아미노-6-(메틸티오)피라졸로[3,4-d]피리미딘] | 97±5 % of LPS
9 | CCCCNc1nc(NC(C)c2ccccc2)c2cnn(Cc3ccccc3)c2n1 (stereo not drawn) [24i, 1-벤질-N6-뷰틸-N4-(1-페닐에틸)-1H-피라졸로[3,4-d]피리미딘-4,6-디아민] | 42±0.8 % of LPS

Same assay, conditions: Mus musculus, 20 μM, LPS 0.2 ㎍/mL, 24 h co-treatment, nitrite by Griess at 540 nm

Row | Molecule | activity at 20 µM [%]
10 | CSc1nc(N2CCN(C)CC2)c2cn[nH]c2n1 [6n, 4-(4-메틸피페라지노)-6-(메틸티오)피라졸로[3,4-d]피리미딘] | 114 ± 9

Same assay, conditions: Mus musculus, BV-2, 24 h, 20 μM, LPS 0.2 ㎍/mL, 24 h co-treatment, nitrite by Griess at 540 nm

Row | Molecule | activity at 20 µM [%]
11 | CSc1nc(Cl)c2cnn(C)c2n1 [5a, 1-메틸-4-클롤로-6-(메틸티오)피라졸로[3,4-d]피리미딘] | 51 ± 2
12 | C=CCn1ncc2c(Cl)nc(SC)nc21 [5b, 1-알릴-4-클로로-6-(메틸티오)피라졸로[3,4-d]피리미딘] | 63 ± 8
13 | CSc1nc(Cl)c2cnn(CCOC3CCCCO3)c2n1 (stereo not drawn) [5c, 1-[2-(테트라하이드로피란-2-일옥시)에틸]-4-클로로-6-(메틸티오)피라졸로[3,4-d]피리미딘] | 49 ± 9
14 | CSc1nc(Cl)c2cnn(CCNC(=O)OC(C)(C)C)c2n1 [5d, 1-[N-t-Boc-(2-아미노에틸)]-4-클로로-6-(m메틸티오)피라졸로[3,4-d]피리미딘] | 48 ± 4
15 | CSc1nc(Cl)c2cnn(-c3ccccc3)c2n1 [5e, 1-페닐-4-클로로-6-(메틸티오)피라졸로[3,4-d]피리미딘] | 50 ± 7
16 | CSc1nc(Cl)c2cnn(Cc3ccccc3)c2n1 [5f, 1-벤질-4-클로로-6-(메틸티오)피라졸로[3,4-d]피리미딘] | 69 ± 3
17 | CSc1nc(Cl)c2cnn(C(C)(C)C)c2n1 [5g, 1-t-뷰틸-4-클로로-6-(메틸티오)피라졸로[3,4-d]피리미딘] | 15 ± 18
18 | CSc1nc(Cl)c2cnn(-c3ccc(F)cc3)c2n1 [5h, 1-(4-플루오로페닐)-4-클로로-6-(메틸티오)피라졸로[3,4-d]피리미딘] | 9 ± 42.2
19 | CSc1nc(Cl)c2cnn(-c3ccc(C)cc3)c2n1 [5i, 1-(4-메틸페닐)-4-클로로-6-(메틸티오)피라졸로[3,4-d]피리미딘] | 54 ± 2.7
20 | COc1cccc(CCn2ncc3c(Cl)nc(SC)nc32)c1 [5j, 1-(3-메톡시펜에틸)-4-클로로-6-(메틸티오)-1H-피라졸로[3,4-d]피리미딘] | 5 ± 49.7
21 | COc1ccccc1CCn1ncc2c(Cl)nc(SC)nc21 [5k, 1-(2-메톡시펜에틸)-4-클로로-6-(메틸티오)-1H-피라졸로[3,4-d]피리미딘] | 5 ± 62.9
22 | C=CCNc1nc(SC)nc2[nH]ncc12 [6b, 4-알릴아미노-6-(메틸티오)피라졸로[3,4-d]피리미딘] | 100 ± 4
23 | CSc1nc(NCCc2ccccc2)c2cn[nH]c2n1 [6c, 4-펜에틸아미노-6-(메틸티오)피라졸로[3,4-d]피리미딘] | 91 ± 4
24 | CSc1nc(NCc2ccc(F)cc2)c2cn[nH]c2n1 [6d, 4-(4-플루오로벤질)아미노-6-(메틸티오)피라졸로[3,4-d]피리미딘] | 84 ± 8
25 | CCCCNc1nc(SC)nc2[nH]ncc12 [6e, 4-n-뷰틸아미노-6-(메틸티오)피라졸로[3,4-d]피리미딘] | 83 ± 9
26 | CSc1nc(NCCO)c2cn[nH]c2n1 [6f, 4-(1-하이드록시에틸)아미노-6-(메틸티오)피라졸로[3,4-d]피리미딘] | 87 ± 6
27 | CSc1nc(NCCN2CCCCC2)c2cn[nH]c2n1 [6g, 4-(2-피페리딘-1-일)에틸아미노-6-(메틸티오)피라졸로[3,4-d]피리미딘] | 102 ± 6
28 | COc1cccc(CNc2nc(SC)nc3[nH]ncc23)c1 [6i, 4-(3-메톡시벤질)아미노-6-(메틸티오)피라졸로[3,4-d]피리미딘] | 48 ± 10
29 | CSc1nc(NC(C)C2CCCCC2)c2cn[nH]c2n1 (stereo not drawn) [6j, 4-(1-사이클로헥실에틸)아미노-6-(메틸티오)피라졸로[3,4-d]피리미딘] | 66 ± 10
30 | CSc1nc(N[C@H](C)c2ccccc2)c2cn[nH]c2n1 [6k, (R)-4-(1-페닐에틸)아미노-6-(메틸티오)피라졸로[3,4-d]피리미딘] | 16 ± 17
31 | CSc1nc(NC(C)(C)CO)c2cn[nH]c2n1 [6l, 4-(2-하이드록시-1-다이메틸에틸)아미노-6-(메틸티오)피라졸로[3,4-d]피리미딘] | 125 ± 14
32 | CSc1nc(NCCCn2ccnc2)c2cn[nH]c2n1 [6m, 4-(3-이미다졸-1-일)프로판아미노-6-(메틸티오)피라졸로[3,4-d]피리미딘] | 97 ± 6
33 | CSc1nc(N(CCO)CCO)c2cn[nH]c2n1 [6o, 4-(디-2-하이드로에틸)아미노-6-(메틸티오)피라졸로[3,4-d]피리미딘] | 106 ± 10

Row | Molecule | activity at 20 µM [%]
34 | CSc1nc(NCc2ccc(Cl)cc2)c2cn[nH]c2n1 [6p, 4-(4-클로로벤질)아미노-6-(메틸티오)피라졸로[3,4-d]피리미딘] | 50 ± 23
35 | CSc1nc(NCc2ccc(C)cc2)c2cn[nH]c2n1 [6q, 4-(4-메틸벤질)아미노-6-(메틸티오)피라졸로[3,4-d]피리미딘] | 90 ± 15
36 | CSc1nc(NCc2ccccc2C)c2cn[nH]c2n1 [6r, 4-(2-메틸벤질)아미노-6-(메틸티오)피라졸로[3,4-d]피리미딘] | 64 ± 3
37 | CSc1nc(N2CCCCC2)c2cn[nH]c2n1 [6s, 4-피페리디노-6-(메틸티오)피라졸로[3,4-d]피리미딘] | 85 ± 15
38 | CSc1nc(NC2CCCCC2)c2cn[nH]c2n1 [6t, 4-사이클로헥실아미노-6-(메틸티오)피라졸로[3,4-d]피리미딘] | 106 ± 5
39 | CCN(CC)c1nc(SC)nc2[nH]ncc12 [6u, 4-다이에틸아미노-6-(메틸티오)피라졸로[3,4-d]피리미딘] | 87 ± 8
40 | COc1ccccc1CNc1nc(SC)nc2[nH]ncc12 [6v, 4-(2-메톡시벤질)아미노-6-(메틸티오)피라졸로[3,4-d]피리미딘] | 36 ± 7
41 | CSc1nc(NCc2ccccc2Cl)c2cn[nH]c2n1 [6w, N-(2-클로로벤질)-6-(메틸티오)-1H-피라졸로[3,4-d]피리미딘-4-아민] | 46 ± 2.9
42 | COc1ccc(CNc2nc(SC)nc3[nH]ncc23)cc1 [6x, N-(4-메톡시벤질)-6-(메틸티오)-1H-피라졸로[3,4-d]피리미딘-4-아민] | 115 ± 3.2
43 | CSc1nc(NCc2ccccn2)c2cn[nH]c2n1 [6y, 6-(메틸티오)-N-((피리딘-2-일)메틸)-1H-피라졸로[3,4-d]피리미딘-4-아민] | 90 ± 2.9
44 | CSc1ncc2cnn(-c3ccccc3)c2n1 [7b, 1-페닐-6-(메틸티오)피라졸로[3,4-d]피리미딘] | 78 ± 4
45 | CSc1nc2c(cnn2-c2ccccc2)c(=O)[nH]1 [8b, 1-페닐-6-(메틸티오)피라졸로[3,4-d]피리미딘-4-온] | 75 ± 3
46 | CSc1nc2c(cnn2-c2ccccc2)c(=S)[nH]1 [9b, 1-페닐-6-(메틸티오)피라졸로[3,4-d]피리미딘-4-티온] | 94 ± 7
47 | CSc1nc2c(cnn2Cc2ccccc2)c(=S)[nH]1 [9c, 1-벤질-6-(메틸티오)피라졸로[3,4-d]피리미딘-4-티온] | 79 ± 5
48 | CSc1nc2c(cnn2C(C)(C)C)c(=S)[nH]1 [9d, 1-t-뷰틸-6-(메틸티오)피라졸로[3,4-d]피리미딘-4-티온] | 108 ± 5
49 | CSc1nc(NCc2ccccc2)c2cnn(C)c2n1 [12a, 1-메틸-4-벤질아미노-6-(메틸티오)피라졸로[3,4-d]피리미딘] | 77 ± 2
50 | CSc1nc(NC(C)(C)CO)c2cnn(C)c2n1 [12b, 1-메틸-4-[(1-하이드록시-2,2-다이메틸)에틸]아미노-6-(메틸티오)피라졸로[3,4-d]피리미딘] | 90 ± 7
51 | CSc1nc(N(CCO)CCO)c2cnn(C)c2n1 [12c, 1-메틸-4-비스(1-하이드록시에틸)아미노-6-(메틸티오)피라졸로[3,4-d]피리미딘] | 115 ± 6
52 | CSc1nc(NCCCn2ccnc2)c2cnn(C)c2n1 [12d, 1-메틸-4-[3-(이미다졸-1-일)]프로필아미노-6-(메틸티오)피라졸로[3,4-d]피리미딘] | 75 ± 1
53 | CSc1nc(NCCO)c2cnn(C)c2n1 [12e, 1-메틸-4-(1-하이드록시에틸)아미노-6-(메틸티오)피라졸로[3,4-d]피리미딘] | 91 ± 2
54 | CSc1nc(NCc2ccc(F)cc2)c2cnn(C)c2n1 [12f, 1-메틸-4-(4-플루오로벤질)아미노-6-(메틸티오)피라졸로[3,4-d]피리미딘] | 72 ± 2
55 | CSc1nc(NCCc2ccccc2)c2cnn(C)c2n1 [12g, 1-메틸-4-(2-페닐에틸)아미노-6-(메틸티오)피라졸로[3,4-d]피리미딘] | 92 ± 1
56 | COc1ccc(CNc2nc(SC)nc3c2cnn3C)cc1 [12h, 1-메틸-4-(4-메톡시벤질)아미노-6-(메틸티오)피라졸로[3,4-d]피리미딘] | 33 ± 10

Same assay, conditions: Mus musculus, BV-2, 24 h, 30 μM, LPS 0.2 ㎍/mL, 24 h co-treatment, nitrite by Griess at 540 nm

Row | Molecule | activity at 30 µM [%]
57 | CSc1nc(Cl)c2cnn(-c3ccc(F)cc3)c2n1 [5h, 1-(4-플루오로페닐)-4-클로로-6-(메틸티오)피라졸로[3,4-d]피리미딘] | 59.6
58 | CSc1ncc2cn[nH]c2n1 [7a, 6-(메틸티오)피라졸로[3,4-d]피리미딘] | 79 ± 1
59 | CSc1nc2[nH]ncc2c(=O)[nH]1 [8a, 6-(메틸티오)피라졸로[3,4-d]피리미딘-4-온] | 75 ± 0.9
60 | CSc1nc2[nH]ncc2c(=S)[nH]1 [9a, 6-(메틸티오)피라졸로[3,4-d]피리미딘-4-티온] | 98 ± 5.5
61 | COc1nc(SC)nc2[nH]ncc12 [10a, 4-메톡시-6-(메틸티오)피라졸로[3,4-d]피리미딘] | 91 ± 2.4
62 | CCOc1nc(SC)nc2[nH]ncc12 [10b, 4-에톡시-6-(메틸티오)피라졸로[3,4-d]피리미딘] | 93 ± 9
63 | CSc1nc(NCc2ccccc2)c2c(I)n[nH]c2n1 [11a, 3-아이오도-4-벤질아미노-6-(메틸티오)피라졸로[3,4-d]피리미딘] | 27 ± 11
64 | CSc1nc(NCCO)c2c(I)n[nH]c2n1 [11b, 3-아이오도-4-(1-하이드록시에틸)아미노-6-(메틸티오)피라졸로[3,4-d]피리미딘] | 82 ± 7
65 | COc1nc(SC)nc2[nH]nc(I)c12 [11d, 3-아이오도-4-메톡시-6-(메틸티오)피라졸로[3,4-d]피리미딘] | 91 ± 3

Same assay, conditions: Mus musculus, BV-2, 24 h, 50 μM (printed in cell of the 30 μM column), LPS 0.2 ㎍/mL, 24 h co-treatment

Row | Molecule | activity at 50 µM [%]
66 | CSc1nc(NCc2ccccc2)c2cn[nH]c2n1 [6a, 4-벤질아미노-6-(메틸티오)피라졸로[3,4-d]피리미딘] | 35 ± 4
